Results as given in US10144742B2 (Millennium Pharmaceuticals, Inc., priority 2014, dated 2018).
Read-outs that look alike come from different tables or passages of the source.

Columns and labels:
hNAMPT protein = hNAMPT protein (Homo sapiens (Human), UniProt P43490); test: NAMPT enzyme assay (TR-FRET/HTRF, BodiPY ligand, anti 6His-Tb); assay type: binding; conditions: for IC50: NAMPT IC50 range class, read-out: IC50; for inhibition at 1 µM: read-out: Percent Inhibition
How it was run: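 TR-FRET binding assay in which His-tagged human NAMPT with anti-6His-Tb is displaced by compound from a BodiPY ligand, incubated 1 h at rt in the dark. Excitation was at 320 nm, with the 520/486 nm emission ratio read. IC50 was fitted from inhibition relative to DMSO controls.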

PC3 cells = test: PC3 growth inhibition (Cell-titer glo, 72 hours); assay type: cell-based; conditions: Homo sapiens, PC-3, PC3 cells, 72 hours, Cell-titer glo, read-out: Percent Inhibition (PC3 growth inhibition); for inhibition at 1 µM: compound concentration 1 μM; for inhibition at 1.667 µM: compound concentration 1.667 μM
How it was run: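 PC3 cells in RPMI1640 seeded overnight at 37 °C, 5% CO2, then exposed to compound diluted in AIM serum-free medium for 72 h. Viability by CellTiter-Glo luminescence vs DMSO controls; single-concentration % remaining viability (1 μM or 1.667 μM), or GI50/LD50 from curves.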

Sequence of hNAMPT protein (P43490 whole entry): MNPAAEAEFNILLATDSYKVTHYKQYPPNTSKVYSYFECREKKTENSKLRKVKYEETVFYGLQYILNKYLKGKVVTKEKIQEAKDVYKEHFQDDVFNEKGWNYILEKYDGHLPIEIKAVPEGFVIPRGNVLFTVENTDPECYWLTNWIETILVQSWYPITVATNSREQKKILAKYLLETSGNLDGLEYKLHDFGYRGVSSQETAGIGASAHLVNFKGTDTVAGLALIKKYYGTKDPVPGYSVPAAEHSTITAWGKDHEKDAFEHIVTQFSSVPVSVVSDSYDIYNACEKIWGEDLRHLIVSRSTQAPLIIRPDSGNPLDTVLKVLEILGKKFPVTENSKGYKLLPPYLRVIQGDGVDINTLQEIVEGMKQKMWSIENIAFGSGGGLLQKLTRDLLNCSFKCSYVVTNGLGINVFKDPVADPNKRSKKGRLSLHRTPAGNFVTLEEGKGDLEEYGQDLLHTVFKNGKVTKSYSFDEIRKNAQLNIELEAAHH

O=C(NCCc1cn2c(n1)SCC2)c1ccc2nc(-c3ccc(F)cc3)c(-c3ccc(F)cc3)nc2c1 [Compound I-238, N-[2-(2,3-dihydroimidazo[2,1-b][1,3]thiazol-6-yl)ethyl]-2,3-bis(4-fluorophenyl)quinoxaline-6-carboxamide]
IC50 (hNAMPT protein): 2000 to 10000 nM
inhibition at 1 µM (hNAMPT protein; compound concentration 1 μM): 19%
inhibition at 1 µM (PC3 cells): 96%

CC(C)(C)OC(=O)N1CCC(C2CCN(c3nc4ccc(C(=O)NCCn5ccnc5)cc4nc3-c3ccccc3)CC2)CC1 [Compound I-239, tert-Butyl 1′-(6-{[2-(1H-imidazol-1-yl)ethyl]carbamoyl}-3-phenylquinoxalin-2-yl)-4,4′-bipiperidine-1-carboxylate]
IC50 (hNAMPT protein): 2000 to 10000 nM
inhibition at 1 µM (hNAMPT protein; compound concentration 1 μM): 25%
inhibition at 1 µM (PC3 cells): 14%

O=C(NCCCn1ccnc1)c1ccc2nc(C3=CCCCC3)c(-c3ccccc3)nc2c1 [Compound I-240, 2-(cyclohex-1-en-1-yl)-N-[3-(1H-imidazol-1-yl)propyl]-3-phenylquinoxaline-6-carboxamide]
IC50 (hNAMPT protein): 100 to 500 nM
inhibition at 1 µM (hNAMPT protein; compound concentration 1 μM): 83%
inhibition at 1 µM (PC3 cells): -8%

COc1ccc(-c2nc3cc(C(=O)NCCCn4ccnc4)ccc3nc2-c2ccccc2)cc1 [Compound I-241, N-[3-(1H-imidazol-1-yl)propyl]-3-(4-methoxyphenyl)-2-phenylquinoxaline-6-carboxamide]
IC50 (hNAMPT protein): 500 to 1000 nM
inhibition at 1 µM (hNAMPT protein; compound concentration 1 μM): 57%
inhibition at 1 µM (PC3 cells): 1%

O=C(NCCCn1ccnc1)c1ccc2nc(-c3cncnc3)c(-c3ccccc3)nc2c1 [Compound I-242, N-[3-(1H-imidazol-1-yl)propyl]-3-phenyl-2-(pyrimidin-5-yl)quinoxaline-6-carboxamide]
IC50 (hNAMPT protein): 1000 to 2000 nM
inhibition at 1 µM (hNAMPT protein; compound concentration 1 μM): 45%
inhibition at 1 µM (PC3 cells): -7%

O=C(NCCCn1ccnc1)c1ccc2nc(N3CCC4(COC4)C3)c(-c3ccccc3)nc2c1 [Compound I-243, N-[3-(1H-imidazol-1-yl)propyl]-2-(2-oxa-6-azaspiro[3.4]oct-6-yl)-3-phenylquinoxaline-6-carboxamide]
IC50 (hNAMPT protein): 500 to 1000 nM
inhibition at 1 µM (hNAMPT protein; compound concentration 1 μM): 62%
inhibition at 1 µM (PC3 cells): -6%

O=C(c1ccc2nc(-c3ccc(F)cc3)c(-c3ccc(F)cc3)nc2c1)N1CCc2cn[nH]c2C1 [Compound I-244, [2,3-bis(4-fluorophenyl)quinoxalin-6-yl](1,4,5,7-tetrahydro-6H-pyrazolo[3,4-c]pyridin-6-yl)methanone]
IC50 (hNAMPT protein): 2000 to 10000 nM
inhibition at 1 µM (hNAMPT protein; compound concentration 1 μM): 33%
inhibition at 1 µM (PC3 cells): 96%

COc1cc(OC)cc(-c2nc3cc(C(=O)NCCCn4ccnc4)ccc3nc2-c2ccccc2)c1 [Compound I-245, 3-(3,5-dimethoxyphenyl)-N-[3-(1H-imidazol-1-yl)propyl]-2-phenylquinoxaline-6-carboxamide]
IC50 (hNAMPT protein): 500 to 1000 nM
inhibition at 1 µM (hNAMPT protein; compound concentration 1 μM): 62%
inhibition at 1 µM (PC3 cells): -8%

O=C(NCCCn1ccnc1)c1ccc2nc(-c3cccs3)c(-c3ccccc3)nc2c1 [Compound I-247, N-[3-(1H-imidazol-1-yl)propyl]-3-phenyl-2-(2-thienyl)quinoxaline-6-carboxamide]
IC50 (hNAMPT protein): 500 to 1000 nM
inhibition at 1 µM (hNAMPT protein; compound concentration 1 μM): 58%
inhibition at 1 µM (PC3 cells): -5%

CC(=O)Nc1cccc(-c2nc3cc(C(=O)NCCCn4ccnc4)ccc3nc2-c2ccccc2)c1 [Compound I-248, 3-(3-acetamidophenyl)-N-[3-(1H-imidazol-1-yl)propyl]-2-phenylquinoxaline-6-carboxamide]
IC50 (hNAMPT protein): 2000 to 10000 nM
inhibition at 1 µM (hNAMPT protein; compound concentration 1 μM): 29%
inhibition at 1 µM (PC3 cells): 2%

O=C(NCCCn1ccnc1)c1ccc2nc(N3CCN4C(=O)CCC4C3)c(-c3ccccc3)nc2c1 (stereo not drawn) [Compound I-250, N-[3-(1H-imidazol-1-yl)propyl]-2-(6-oxohexahydropyrrolo[1,2-a]pyrazin-2(1H)-yl)-3-phenylquinoxaline-6-carboxamide]
IC50 (hNAMPT protein): 100 to 500 nM
inhibition at 1 µM (hNAMPT protein; compound concentration 1 μM): 86%
inhibition at 1 µM (PC3 cells): -6%

O=C(NCCCn1ccnc1)c1ccc2nc(-c3ccccc3)c(-c3ccncc3)nc2c1 [Compound I-251, N-[3-(1H-imidazol-1-yl)propyl]-2-phenyl-3-(pyridin-4-yl)quinoxaline-6-carboxamide]
IC50 (hNAMPT protein): 100 to 500 nM
inhibition at 1 µM (hNAMPT protein; compound concentration 1 μM): 65%
inhibition at 1 µM (PC3 cells): 1%

O=C(NCCCn1ccnc1)c1ccc2nc(-c3ccccc3)c(-c3ccc4c(c3)CCO4)nc2c1 [Compound I-252, 3-(2,3-dihydro-1-benzofuran-5-yl)-N-[3-(1H-imidazol-1-yl)propyl]-2-phenylquinoxaline-6-carboxamide]
IC50 (hNAMPT protein): 500 to 1000 nM
inhibition at 1 µM (hNAMPT protein; compound concentration 1 μM): 53%
inhibition at 1 µM (PC3 cells): 2%

CC(C)Oc1nc2ccc(C(=O)NCCCc3ncc[nH]3)cc2nc1-c1ccc(F)cc1 [Compound I-253, 3-(4-Fluorophenyl)-N-[3-(1H-imidazol-2-yl)propyl]-2-isopropoxyquinoxaline-6-carboxamide]
IC50 (hNAMPT protein): < 100 nM
inhibition at 1 µM (hNAMPT protein): 93%
inhibition at 1.667 µM (PC3 cells): 2%

CC(=O)Nc1ccc(-c2nc3ccc(C(=O)NCCCn4ccnc4)cc3nc2-c2ccccc2)cc1 [Compound I-254, 2-(4-acetamidophenyl)-N-[3-(1H-iniidazol-1-yl)propyl]-3-phenylquinoxaline-6-carboxamide]
IC50 (hNAMPT protein): 100 to 500 nM
inhibition at 1 µM (hNAMPT protein; compound concentration 1 μM): 84%
inhibition at 1 µM (PC3 cells): -8%

O=C(NCCCc1ncc[nH]1)c1ccc2nc(N3CCC(N4CCOCC4)CC3)c(-c3ccc(Cl)cc3)nc2c1 [Compound I-255, 3-(4-chlorophenyl)-N-[3-(1H-imidazol-2-yl)propyl]-2-[4-(morpholin-4-yl)piperidin-1-yl]quinoxaline-6-carboxamide]
IC50 (hNAMPT protein): < 100 nM
inhibition at 1 µM (hNAMPT protein; compound concentration 1 μM): > 99%
inhibition at 1.667 µM (PC3 cells): 2%

O=C(NCCCc1ncc[nH]1)c1ccc2nc(N3CCSCC3)c(-c3ccc(F)cc3)nc2c1 [Compound I-256, 3-(4-fluorophenyl)-N-[3-(1H-imidazol-2-yl)propyl]-2-(thiomorpholin-4-yl)quinoxaline-6-carboxamide]
IC50 (hNAMPT protein): < 100 nM
inhibition at 1 µM (hNAMPT protein; compound concentration 1 μM): 97%
inhibition at 1.667 µM (PC3 cells): 2%

O=C(NCCCn1ccnc1)c1ccc2nc(-c3ccccc3Cl)c(-c3ccccc3)nc2c1 [Compound I-257, 2-(2-chlorophenyl)-N-[3-(1H-imidazol-1-yl)propyl]-3-phenylquinoxaline-6-carboxamide]
IC50 (hNAMPT protein): 100 to 500 nM
inhibition at 1 µM (hNAMPT protein; compound concentration 1 μM): 77%
inhibition at 1 µM (PC3 cells): -8%

O=C(NCCCn1ccnc1)c1ccc2nc(-c3ccc4nccn4c3)c(-c3ccccc3)nc2c1 [Compound I-258, N-[3-(1H-imidazol-1-yl)propyl]-2-(imidazo[1,2-a]pyridin-6-yl)-3-phenylquinoxaline-6-carboxamide]
IC50 (hNAMPT protein): 100 to 500 nM
inhibition at 1 µM (hNAMPT protein; compound concentration 1 μM): 67%
inhibition at 1 µM (PC3 cells): -8%

CN1CCN(Cc2nc3ccc(C(=O)NCCCn4ccnc4)cc3nc2-c2ccccc2)CC1 [Compound I-259, N-[3-(1H-imidazol-1-yl)propyl]-2-[(4-methylpiperazin-1-yl)methyl]-3-phenylquinoxaline-6-carboxamide]
IC50 (hNAMPT protein): 1000 to 2000 nM
inhibition at 1 µM (hNAMPT protein; compound concentration 1 μM): 44%
inhibition at 1 µM (PC3 cells): -7%

O=C(NCCCn1ccnc1)c1ccc2nc(-c3ccccc3)c(-c3ccccc3)nc2c1 [Compound I-261, N-[3-(1H-imidazol-1-yl)propyl]-2,3-diphenylquinoxaline-6-carboxamide]
IC50 (hNAMPT protein): 100 to 500 nM
inhibition at 1 µM (hNAMPT protein; compound concentration 1 μM): 67%
inhibition at 1 µM (PC3 cells): -1%

O=C(NCCCn1ccnc1)c1ccc2nc(N3CCCCCC3)c(-c3ccccc3)nc2c1 [Compound I-262, 2-(azepan-1-yl)-N-[3-(1H-imidazol-1-yl)propyl]-3-phenylquinoxaline-6-carboxamide]
IC50 (hNAMPT protein): < 100 nM
inhibition at 1 µM (hNAMPT protein; compound concentration 1 μM): 91%
inhibition at 1 µM (PC3 cells): -7%

NC(=O)c1cccc(-c2nc3cc(C(=O)NCCCn4ccnc4)ccc3nc2-c2ccccc2)c1 [Compound I-263, 3-(3-carbamoylphenyl)-N-[3-(1H-imidazol-1-yl)propyl]-2-phenylquinoxaline-6-carboxamide]
IC50 (hNAMPT protein): 100 to 500 nM
inhibition at 1 µM (hNAMPT protein; compound concentration 1 μM): 81%
inhibition at 1 µM (PC3 cells): 1%

CC(=O)Nc1ccccc1-c1nc2ccc(C(=O)NCCCn3ccnc3)cc2nc1-c1ccccc1 [Compound I-264, 2-(2-acetamidophenyl)-N-[3-(1H-imidazol-1-yl)propyl]-3-phenylquinoxaline-6-carboxamide]
IC50 (hNAMPT protein): 1000 to 2000 nM
inhibition at 1 µM (hNAMPT protein; compound concentration 1 μM): 41%
inhibition at 1 µM (PC3 cells): -8%

O=C(NCCCn1ccnc1)c1ccc2nc(-c3ccccc3)c(N3CCCCCC3)nc2c1 [Compound I-265, 3-(azepan-1-yl)-N-[3-(1H-imidazol-1-yl)propyl]-2-phenylquinoxaline-6-carboxamide]
IC50 (hNAMPT protein): 2000 to 10000 nM
inhibition at 1 µM (hNAMPT protein; compound concentration 1 μM): 17%
inhibition at 1 µM (PC3 cells): 11%

O=C(c1ccc2nc(-c3ccc(F)cc3)c(-c3ccc(F)cc3)nc2c1)N1CCc2nocc2C1 [Compound I-266, [2,3-bis(4-fluorophenyl)quinoxalin-6-yl](6,7-dihydroisoxazolo[4,3-c]pyridin-5(4H)-yl)methanone]
IC50 (hNAMPT protein): 2000 to 10000 nM
inhibition at 1 µM (hNAMPT protein; compound concentration 1 μM): 15%
inhibition at 1 µM (PC3 cells): 104%

O=C(NCCCn1ccnc1)c1ccc2nc(N3CCC(N4CCOCC4)C3)c(-c3ccccc3)nc2c1 (stereo not drawn) [Compound I-267, N-[3-(1H-imidazol-1-yl)propyl]-2-[3-(morpholin-4-yl)pyrrolidin-1-yl]-3-phenylquinoxaline-6-carboxamide]
IC50 (hNAMPT protein): 100 to 500 nM
inhibition at 1 µM (hNAMPT protein; compound concentration 1 μM): 81%
inhibition at 1 µM (PC3 cells): -7%

O=C(NCCCn1ccnc1)c1ccc2nc(N3CCC4(CC3)Cc3ccccc3O4)c(-c3ccccc3)nc2c1 [Compound I-268, N-[3-(1H-imidazol-1-yl)propyl]-3-phenyl-2-(1′H,3H-spiro[1-benzofuran-2,4′-piperidin]-1′-yl)quinoxaline-6-carboxamide]
IC50 (hNAMPT protein): 1000 to 2000 nM
inhibition at 1 µM (hNAMPT protein; compound concentration 1 μM): 63%
inhibition at 1 µM (PC3 cells): -6%
